Here are results for three compounds from patent US20150157633A1, “WNT PROTEIN SIGNALLING INHIBITORS” (The Board of Regents of the University of Texas System, priority 2012, published 2015).

“Also recorded” adds a separate entry of the source.

The subject of one test is Wnt5A. In words: Wnt5A-dependent antagonism of Wnt/β-catenin signaling, STF reporter in HEK293 cells. The conditions noted are these: Wnt3A-containing conditioned medium. The format is cell-based. The method, then: (§1) Luciferase reporter assays. Wnt-Gaussia luciferase secretion and SuperTopFlash assays were conducted as described using a Dual Luciferase kit (Promega) (Chen et al., 2009).

The test system of another test is Hh. The following applies: previously demonstrated (Chen et al., 2009); cited from earlier work.
A further test deals with Dv12. As to the kind of experiment: Dv12 phosphorylation in HeLa cells (Western blot). The format is cell-based. The following applies: cell-autonomous Wnt signaling. (A western blot detects proteins with antibodies after separation by electrophoresis.)
The next test has as its system Wnt-GL fusion proteins. As to the kind of experiment: Wnt-Gaussia luciferase secretion assay in HEK293 cells. The following applies: HEK293 cells expressing one of several Wnt-GL proteins. The format is cell-based. The method, then: as §1
In the next test the test system is Jnk. In words: Wnt7B-induced Jnk phosphorylation in L fibroblasts. The following applies: L fibroblasts transfected with Wnt7B DNA. The format is cell-based, Mouse.
The subject of a further test is Notch. The following applies: previously demonstrated (Chen et al., 2009); cited from earlier work.
In the next test the target is HHAT (Homo sapiens, UniProt Q5VTY9). As to the kind of experiment: Click chemistry labeling of Hh protein with alkynyl-PA (Hh fatty acylation). The format is cell-based.
Another test relates to Wnt1-GFP. As to the kind of experiment: Organotypic embryonic kidney culture from Wnt1-GFP mice. The format is cell-based. The method, then:
Organotypic kidney culture. E11.5 urogenital systems were removed and bisected in sterile phosphate buffered saline (PBS) and then the individual halves were cultured in […] of media at the air-media interface on 24-well tissue culture treated, 6.5 mm diameter, […] pore size Transwell filters (Corning, catalog no. 3422). The media (DMEM with 10% fetal bovine serum (FBS) and Pen/Strep) was supplemented with either DMSO or IWP2 and replaced with fresh media every 12, 24, or 48 hours. All treatments were repeated at least three times with a minimum of six individual kidneys from six distinct embryos each time.

For a further test, the target named is T1, Porcn (Homo sapiens, UniProt Q9H237).
T1 construct: endogenous in cells; host or cells: HEK293
T1 sequence (Q9H237 1-461): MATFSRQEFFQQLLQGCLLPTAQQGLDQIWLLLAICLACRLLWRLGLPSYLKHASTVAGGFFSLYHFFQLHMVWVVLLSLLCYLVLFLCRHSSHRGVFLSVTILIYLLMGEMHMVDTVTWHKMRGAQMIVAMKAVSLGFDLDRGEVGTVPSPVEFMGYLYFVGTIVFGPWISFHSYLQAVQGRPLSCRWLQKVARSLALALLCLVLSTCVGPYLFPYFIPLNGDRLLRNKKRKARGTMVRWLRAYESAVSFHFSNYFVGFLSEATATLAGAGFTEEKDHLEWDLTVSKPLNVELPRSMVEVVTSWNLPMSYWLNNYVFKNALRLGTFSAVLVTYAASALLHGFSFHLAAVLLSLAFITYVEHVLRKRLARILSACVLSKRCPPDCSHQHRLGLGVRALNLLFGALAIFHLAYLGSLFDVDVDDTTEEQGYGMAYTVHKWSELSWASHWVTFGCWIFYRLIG
As to the kind of experiment: Click chemistry labeling of Wnt3A-Fc with alkynyl-PA (Wnt fatty acylation). The format is cell-based. The method, then:
Click chemistry. HEK293 cells transiently transfected with the Wnt3A-Fc DNA expression construct were treated with C16 ω-alkynyl fatty acid (see Reagents; 100 μM final concentration) for six hours as previously described (9) in the presence or DMSO or various IWP compounds. C16 ω-alkynyl fatty acid-labeled Wnt3A-Fc protein isolated from cell lysate using Protein A sepharose was then subjected to a copper catalyzed alkyne-azide cycloaddition with biotin-azide with protein immobilized on the sepharose. The biotinylated Wnt protein run on SDS PAGE was detected using HRP conjugated streptavidin.

Test [1] deals with general protein secretion. The conditions noted are these: previously demonstrated (Chen et al., 2009); cited from earlier work.
The test system of a further test is tailfin regeneration. In words: Caudal fin regeneration assay in zebrafish larvae. The format is in vivo. The conditions noted are these: larvae resected at 3 days post fertilization, IWP12 50 μM, 4 days.
The subject of test [2] is Wnt/β-catenin pathway. In words: Wnt-responsive EGFP reporter in transgenic zebrafish embryos (7XTCF-siam:EGFP). The format is in vivo. The following applies: for Wnt signaling activity (EGFP reporter): embryos treated from 4 hpf for 20 hours, compound in medium.
Another test deals with Engrailed (eng1a). As to the kind of experiment: eng1a expression at the midbrain/hindbrain boundary, in situ hybridization. The format is in vivo, zebrafish. The following applies: embryos (4 hpf) treated for 20 hours.
The test system of test [3] is Wnt-planar cell polarity (Wnt/PCP) signaling. In words: Convergence and extension gastrulation movements, whole mount in situ hybridization. The format is in vivo, zebrafish. The conditions noted are these: embryos treated starting 4 hpf.
The subject of test [4] is Wnt/β-catenin pathway. In words: Wnt reporter GFP in cultured zebrafish primary embryonic fibroblasts. The format is cell-based. The conditions noted are these: fibroblasts from 6 hpf embryos, GFP visualized 20 hrs later. From the text: Zebrafish embryonic cell cultures were initiated from embryos at the shield stage (6 hpf). The embryos were dissociated in trypsin/EDTA solution with gentle homogenization and pipetting. After centrifugation, the collected cells were resuspended in F12/L15/DMEM medium and placed into a 24-well tissue culture plate.

For a further test, the system named is fin regrowth. In words: Resumption of caudal fin regrowth after removal of compound. The format is in vivo, zebrafish. The conditions noted are these: resected caudal fins, water containing IWR-1 for 7 d, then removal. From the text: Achieving transient repression of pathological Wnt response without incurring permanent damage to normal stem cell function is a key anticancer therapeutic goal.

The next test deals with Axin2. As to the kind of experiment: Axin2 expression in DLD-1 cells. The following applies: exposure for 2 h. The format is cell-based. From the text: Aberrant transcriptional induction of Wnt/β-catenin target genes is typically observed in CRC cells that harbor loss-of-function mutations in the APC tumor suppressor.

HHAT, sequence (Q5VTY9 whole entry, species assumed): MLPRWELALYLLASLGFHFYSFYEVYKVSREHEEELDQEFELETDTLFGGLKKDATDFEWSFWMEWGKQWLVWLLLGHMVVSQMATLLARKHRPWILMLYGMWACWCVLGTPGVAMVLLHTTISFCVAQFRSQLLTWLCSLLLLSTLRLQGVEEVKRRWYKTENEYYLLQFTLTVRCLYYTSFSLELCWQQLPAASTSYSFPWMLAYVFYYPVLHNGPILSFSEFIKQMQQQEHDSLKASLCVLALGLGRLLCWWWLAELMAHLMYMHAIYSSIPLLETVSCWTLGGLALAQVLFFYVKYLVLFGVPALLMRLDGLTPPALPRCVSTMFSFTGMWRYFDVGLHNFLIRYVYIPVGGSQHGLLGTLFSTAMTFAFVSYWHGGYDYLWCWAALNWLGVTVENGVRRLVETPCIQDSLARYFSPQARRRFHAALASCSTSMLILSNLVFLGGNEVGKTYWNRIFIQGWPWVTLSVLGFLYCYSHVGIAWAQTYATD

As for `Cc1ccc2nc(NC(=O)CSc3nc4c(c(=O)n3-c3ccccc3)SCC4)sc2c1` [IWP2], in the test on Wnt5A, the “production of non-canonical Wnt (Wnt5A)” value is “inhibits the production of a non-canonical Wnt (Wnt5A)”. Moreover, in the test on Hh, the “cellular responses mediated by Hh” value is reported as “does not block”. Besides, in the test with Dv12, the Dv12 phosphorylation result was “inhibits Dv12 phosphorylation”. In addition, the “accumulation of Wnt proteins in the cell culture medium” value in the test on Wnt-GL fusion proteins is reported as “abrogated the accumulation of Wnt proteins in the cell culture medium”. In the test on Jnk, the “activation (phosphorylation) of Jnk” value is recorded as “disrupted”. Further, the “cellular responses mediated by Notch” value with Notch is “does not block”. Further, the “fatty acylation of Hh mediated by Hhat” value at HHAT is given as “does not block fatty acylation”. Moreover, the tubule induction result with Wnt1-GFP (E11.5 embryonic kidney culture, Wnt/β-catenin-dependent process) was “disrupt tubule induction”. Further, the “accumulation of Wnt1 on the cell surface” value with Wnt1-GFP (E11.5 embryonic kidney, treated in vitro for 24 hours) is given as “block the accumulation of Wnt1 on the cell surface”. The Wnt protein acylation entry at Porcn was “disrupts Wnt protein acylation”. Also, the general protein secretion entry in [1] was “does not block”.

Turning to `Cc1ccc2nc(NC(=O)CSc3nc4c(c(=O)n3C)SC(C)C4)sc2c1` (stereo not drawn) [IWP12], in the test on tailfin regeneration, the “tailfin regeneration following resection” value is listed as “block juvenile fish tailfin regeneration”. Besides, the “excess of IWP12 equivalent in activity to IWR1” value in the test with Wnt/β-catenin pathway [2] (EGFP reporter fluorescence, posterior region) is “approximately 10 fold”. Also, the “Wnt signaling activity (EGFP reporter)” value in the test on Wnt/β-catenin pathway [2] was “loss of Wnt signaling activity; also recorded: Dose-dependent effects”. In addition, the posterior body morphogenesis result in the test on Wnt/β-catenin pathway [2] (zebrafish embryos) was “severe effect on posterior body morphogenesis”. For the same compound, the “expression of MHB marker Engrailed (eng1a)” value in the test on Engrailed (eng1a) is recorded as “decreased expression of the MHB marker Engrailed (eng1a)”. The “convergence and extension gastrulation movements” value in test [3] is “block convergence and extension gastrulation movements”. In addition, the “Wnt/β-catenin pathway response (GFP)” value in the test with Wnt/β-catenin pathway [4] is “loss of Wnt/β-catenin pathway responses”.

In the case of `O=C(Nc1cccc2cccnc12)c1ccc(N2C(=O)[C@@H]3[C@H](C2=O)[C@@H]2C=C[C@H]3C2)cc1` [IWR1], in the test on Wnt/β-catenin pathway [2], the “Wnt signaling activity (EGFP reporter)” value is “Dose-dependent effects”. Further, the “fin tissue regeneration after chemical removal” value in the test on fin regrowth is “able to regenerate tissue to nearly normal levels after chemical removal”. Besides, the “expression of Axin2” value in the test on Axin2 was “a decrease in the expression of Axin2”.
